# Test system: not listed separately
# Experiment: DRUGMATRIX: beta-Lactamase enzyme inhibition (substrate: Nitrocefin)
# Design: species or system Bacillus cereus
# Conditions: Not Active = under 50% inhibition at 10 µM
SMILES,IC50,Ki
C[C@H]1[C@H](NC(=O)/C(=N\OC(C)(C)C(=O)O)c2csc(N)n2)C(=O)N1S(=O)(=O)O [AZTREONAM],Not Active,Not Active
O=C(O)CCNC(=O)c1ccc(/N=N/c2ccc(O)c(C(=O)O)c2)cc1 [BALSALAZIDE],Not Active,Not Active
COc1cc(OC)c(C(=O)CCCN2CCCC2)c(OC)c1 [BUFLOMEDIL],Not Active,Not Active
Cn1c(=O)c2c(ncn2C)n(C)c1=O [CAFFEINE],Not Active,Not Active
ClC(Cl)(Cl)Cl [CARBON TETRACHLORIDE],Not Active,Not Active
CNC1=Nc2ccc(Cl)cc2C(c2ccccc2)=[N+]([O-])C1 [CHLORDIAZEPOXIDE],Not Active,Not Active

# Target: 5-hydroxytryptamine receptor 4 (Cavia porcellus, UniProt O70528); also: in other assays of this panel Not Active means under 50% inhibition at 10 µM
# Format: cell membranes, Dunkin-Hartley, Striatum, Membrane
# Conditions: not given
# Chain of 5-hydroxytryptamine receptor 4 (O70528 whole entry): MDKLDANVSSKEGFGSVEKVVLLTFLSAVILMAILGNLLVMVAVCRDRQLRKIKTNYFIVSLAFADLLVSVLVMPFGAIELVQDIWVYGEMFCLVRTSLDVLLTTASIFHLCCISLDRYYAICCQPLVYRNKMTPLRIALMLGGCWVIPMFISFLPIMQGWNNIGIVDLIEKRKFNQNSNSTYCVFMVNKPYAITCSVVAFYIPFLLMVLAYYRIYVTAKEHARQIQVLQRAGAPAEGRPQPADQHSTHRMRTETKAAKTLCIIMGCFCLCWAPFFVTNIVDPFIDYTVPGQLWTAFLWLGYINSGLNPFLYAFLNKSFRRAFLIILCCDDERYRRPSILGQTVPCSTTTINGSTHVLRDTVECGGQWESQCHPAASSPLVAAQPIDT
row,SMILES,IC50
1,C[C@H]1[C@H](NC(=O)/C(=N\OC(C)(C)C(=O)O)c2csc(N)n2)C(=O)N1S(=O)(=O)O [AZTREONAM],Not Active
2,O=C(O)CCNC(=O)c1ccc(/N=N/c2ccc(O)c(C(=O)O)c2)cc1 [BALSALAZIDE],Not Active
3,COc1cc(OC)c(C(=O)CCCN2CCCC2)c(OC)c1 [BUFLOMEDIL],Not Active
4,Cn1c(=O)c2c(ncn2C)n(C)c1=O [CAFFEINE],Not Active
5,ClC(Cl)(Cl)Cl [CARBON TETRACHLORIDE],Not Active
6,CNC1=Nc2ccc(Cl)cc2C(c2ccccc2)=[N+]([O-])C1 [CHLORDIAZEPOXIDE],Not Active

# Target: Cannabinoid receptor 1 (Homo sapiens, UniProt P21554); also: in other assays of this panel Not Active means under 50% inhibition at 10 µM
# Format: cell membranes, Chem-1, Membrane
# Conditions: chem-1
# Chain of Cannabinoid receptor 1 (P21554 whole entry): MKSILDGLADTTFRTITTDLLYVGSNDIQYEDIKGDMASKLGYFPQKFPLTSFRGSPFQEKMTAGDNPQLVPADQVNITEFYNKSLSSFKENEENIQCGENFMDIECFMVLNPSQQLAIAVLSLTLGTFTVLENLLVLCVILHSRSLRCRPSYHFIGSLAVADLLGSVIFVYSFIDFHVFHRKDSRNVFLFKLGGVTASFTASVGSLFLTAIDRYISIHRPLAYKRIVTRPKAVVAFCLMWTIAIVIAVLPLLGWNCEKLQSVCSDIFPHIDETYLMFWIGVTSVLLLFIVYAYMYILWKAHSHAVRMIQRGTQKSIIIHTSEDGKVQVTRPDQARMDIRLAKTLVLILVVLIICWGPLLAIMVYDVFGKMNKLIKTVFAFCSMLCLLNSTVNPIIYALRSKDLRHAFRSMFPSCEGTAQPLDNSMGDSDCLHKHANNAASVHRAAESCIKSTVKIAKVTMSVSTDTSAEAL
row,SMILES,IC50
1,C[C@H]1[C@H](NC(=O)/C(=N\OC(C)(C)C(=O)O)c2csc(N)n2)C(=O)N1S(=O)(=O)O [AZTREONAM],Not Active
2,O=C(O)CCNC(=O)c1ccc(/N=N/c2ccc(O)c(C(=O)O)c2)cc1 [BALSALAZIDE],Not Active
3,COc1cc(OC)c(C(=O)CCCN2CCCC2)c(OC)c1 [BUFLOMEDIL],Not Active
4,Cn1c(=O)c2c(ncn2C)n(C)c1=O [CAFFEINE],Not Active
5,ClC(Cl)(Cl)Cl [CARBON TETRACHLORIDE],Not Active
6,CNC1=Nc2ccc(Cl)cc2C(c2ccccc2)=[N+]([O-])C1 [CHLORDIAZEPOXIDE],Not Active

# Target: T1, Endothelin-1 receptor (Homo sapiens, UniProt P25101); also: in other assays of this panel Not Active means under 50% inhibition at 10 µM
# T1 sequence (P25101 whole entry): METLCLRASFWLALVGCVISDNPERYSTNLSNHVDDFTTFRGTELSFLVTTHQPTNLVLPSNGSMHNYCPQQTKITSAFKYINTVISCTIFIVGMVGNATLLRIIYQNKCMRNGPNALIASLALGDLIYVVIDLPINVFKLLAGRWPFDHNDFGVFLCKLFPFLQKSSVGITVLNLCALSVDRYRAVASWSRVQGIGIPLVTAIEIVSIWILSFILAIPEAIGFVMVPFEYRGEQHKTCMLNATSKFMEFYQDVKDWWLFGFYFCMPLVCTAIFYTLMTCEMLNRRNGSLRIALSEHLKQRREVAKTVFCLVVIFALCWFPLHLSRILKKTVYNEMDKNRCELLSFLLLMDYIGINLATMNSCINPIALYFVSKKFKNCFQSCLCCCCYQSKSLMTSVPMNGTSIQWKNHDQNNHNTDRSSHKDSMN
# Format: cell membranes, Membrane
# Conditions: cho-k1
row,SMILES,IC50
1,C[C@H]1[C@H](NC(=O)/C(=N\OC(C)(C)C(=O)O)c2csc(N)n2)C(=O)N1S(=O)(=O)O [AZTREONAM],Not Active
2,O=C(O)CCNC(=O)c1ccc(/N=N/c2ccc(O)c(C(=O)O)c2)cc1 [BALSALAZIDE],Not Active
3,COc1cc(OC)c(C(=O)CCCN2CCCC2)c(OC)c1 [BUFLOMEDIL],Not Active
4,Cn1c(=O)c2c(ncn2C)n(C)c1=O [CAFFEINE],Not Active
5,ClC(Cl)(Cl)Cl [CARBON TETRACHLORIDE],Not Active
6,CNC1=Nc2ccc(Cl)cc2C(c2ccccc2)=[N+]([O-])C1 [CHLORDIAZEPOXIDE],Not Active

# Target: Melanocortin receptor 5 (Homo sapiens, UniProt P33032); also: in other assays of this panel Not Active means under 50% inhibition at 10 µM
# Format: cell membranes, HEK293, Membrane
# Conditions: hek293
# Chain of Melanocortin receptor 5 (P33032 whole entry): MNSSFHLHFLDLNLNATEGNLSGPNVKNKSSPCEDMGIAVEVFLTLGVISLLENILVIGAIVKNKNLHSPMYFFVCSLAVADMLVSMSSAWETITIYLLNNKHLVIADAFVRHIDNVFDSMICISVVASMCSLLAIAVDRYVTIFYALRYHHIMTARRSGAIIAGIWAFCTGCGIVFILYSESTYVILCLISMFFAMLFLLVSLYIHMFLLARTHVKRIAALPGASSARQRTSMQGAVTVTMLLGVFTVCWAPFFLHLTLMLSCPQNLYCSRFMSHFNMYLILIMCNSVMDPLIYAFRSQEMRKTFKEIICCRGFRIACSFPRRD
row,SMILES,IC50
1,C[C@H]1[C@H](NC(=O)/C(=N\OC(C)(C)C(=O)O)c2csc(N)n2)C(=O)N1S(=O)(=O)O [AZTREONAM],Not Active
2,O=C(O)CCNC(=O)c1ccc(/N=N/c2ccc(O)c(C(=O)O)c2)cc1 [BALSALAZIDE],Not Active
3,COc1cc(OC)c(C(=O)CCCN2CCCC2)c(OC)c1 [BUFLOMEDIL],Not Active
4,Cn1c(=O)c2c(ncn2C)n(C)c1=O [CAFFEINE],Not Active
5,ClC(Cl)(Cl)Cl [CARBON TETRACHLORIDE],Not Active
6,CNC1=Nc2ccc(Cl)cc2C(c2ccccc2)=[N+]([O-])C1 [CHLORDIAZEPOXIDE],Not Active

# Target: Mitogen-activated protein kinase 1 (Homo sapiens, UniProt P28482)
# Experiment: DRUGMATRIX: Protein Serine/Threonine Kinase, ERK2 enzyme inhibition (substrate: Myelin Basic Protein)
# Design: species or system Escherichia coli
# Conditions: Not Active = under 50% inhibition at 10 µM
# Chain of Mitogen-activated protein kinase 1 (P28482 whole entry): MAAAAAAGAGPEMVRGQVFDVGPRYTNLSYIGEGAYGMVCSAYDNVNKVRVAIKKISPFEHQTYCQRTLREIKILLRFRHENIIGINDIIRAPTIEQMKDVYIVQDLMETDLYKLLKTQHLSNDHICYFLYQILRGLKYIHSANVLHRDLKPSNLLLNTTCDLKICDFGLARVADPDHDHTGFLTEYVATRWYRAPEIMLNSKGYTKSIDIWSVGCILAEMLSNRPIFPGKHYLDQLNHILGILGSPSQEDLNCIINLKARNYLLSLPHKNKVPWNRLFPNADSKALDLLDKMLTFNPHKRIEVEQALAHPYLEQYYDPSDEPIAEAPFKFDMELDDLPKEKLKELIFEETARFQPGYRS
row,SMILES,IC50
1,C[C@H]1[C@H](NC(=O)/C(=N\OC(C)(C)C(=O)O)c2csc(N)n2)C(=O)N1S(=O)(=O)O [AZTREONAM],Not Active
2,O=C(O)CCNC(=O)c1ccc(/N=N/c2ccc(O)c(C(=O)O)c2)cc1 [BALSALAZIDE],Not Active
3,COc1cc(OC)c(C(=O)CCCN2CCCC2)c(OC)c1 [BUFLOMEDIL],Not Active
4,Cn1c(=O)c2c(ncn2C)n(C)c1=O [CAFFEINE],Not Active
5,ClC(Cl)(Cl)Cl [CARBON TETRACHLORIDE],Not Active
6,CNC1=Nc2ccc(Cl)cc2C(c2ccccc2)=[N+]([O-])C1 [CHLORDIAZEPOXIDE],Not Active

# Target: T2, 5-hydroxytryptamine receptor 1A (Rattus norvegicus, UniProt P19327); also: in other assays of this panel Not Active means under 50% inhibition at 10 µM
# T2 sequence (P19327 whole entry): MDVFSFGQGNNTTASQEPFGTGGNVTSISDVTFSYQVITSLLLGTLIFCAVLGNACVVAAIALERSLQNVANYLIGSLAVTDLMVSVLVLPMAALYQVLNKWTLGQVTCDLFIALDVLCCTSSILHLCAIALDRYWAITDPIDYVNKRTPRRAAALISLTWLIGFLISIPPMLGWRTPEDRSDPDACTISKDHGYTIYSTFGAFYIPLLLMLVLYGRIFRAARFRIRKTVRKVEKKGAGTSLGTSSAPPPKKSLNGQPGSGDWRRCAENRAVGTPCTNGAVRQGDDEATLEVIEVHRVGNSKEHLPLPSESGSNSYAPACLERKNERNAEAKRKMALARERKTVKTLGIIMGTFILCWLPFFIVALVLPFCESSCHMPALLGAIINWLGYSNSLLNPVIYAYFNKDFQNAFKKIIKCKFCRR
# Format: cell membranes, CHO-K1, Membrane
# Conditions: cho-k1
row,SMILES,IC50
1,C[C@H]1[C@H](NC(=O)/C(=N\OC(C)(C)C(=O)O)c2csc(N)n2)C(=O)N1S(=O)(=O)O [AZTREONAM],Not Active
2,O=C(O)CCNC(=O)c1ccc(/N=N/c2ccc(O)c(C(=O)O)c2)cc1 [BALSALAZIDE],Not Active
3,COc1cc(OC)c(C(=O)CCCN2CCCC2)c(OC)c1 [BUFLOMEDIL],Not Active
4,Cn1c(=O)c2c(ncn2C)n(C)c1=O [CAFFEINE],Not Active
5,ClC(Cl)(Cl)Cl [CARBON TETRACHLORIDE],Not Active
6,CNC1=Nc2ccc(Cl)cc2C(c2ccccc2)=[N+]([O-])C1 [CHLORDIAZEPOXIDE],Not Active

# Target: Cytochrome P450 2D6 (Homo sapiens, UniProt P10635); also: in other assays of this panel Not Active means under 50% inhibition at 10 µM
# Conditions: bti-tn-5b1-4
# Chain of Cytochrome P450 2D6 (P10635 whole entry): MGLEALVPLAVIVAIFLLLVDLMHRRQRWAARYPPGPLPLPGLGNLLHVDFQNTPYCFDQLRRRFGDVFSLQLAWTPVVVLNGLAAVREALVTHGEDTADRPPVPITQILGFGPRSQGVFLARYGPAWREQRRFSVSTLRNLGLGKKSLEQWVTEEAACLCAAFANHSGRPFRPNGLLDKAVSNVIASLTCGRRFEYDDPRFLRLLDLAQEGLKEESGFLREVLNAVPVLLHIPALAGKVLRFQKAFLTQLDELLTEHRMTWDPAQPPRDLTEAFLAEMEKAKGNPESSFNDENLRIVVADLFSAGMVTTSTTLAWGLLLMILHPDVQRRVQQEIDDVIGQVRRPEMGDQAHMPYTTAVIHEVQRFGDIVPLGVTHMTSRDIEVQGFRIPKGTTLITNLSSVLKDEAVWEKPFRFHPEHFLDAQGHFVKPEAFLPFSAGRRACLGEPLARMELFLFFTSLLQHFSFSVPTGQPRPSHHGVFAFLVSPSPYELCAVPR
SMILES,IC50,Ki
C[C@H]1[C@H](NC(=O)/C(=N\OC(C)(C)C(=O)O)c2csc(N)n2)C(=O)N1S(=O)(=O)O [AZTREONAM],Not Active,Not Active
O=C(O)CCNC(=O)c1ccc(/N=N/c2ccc(O)c(C(=O)O)c2)cc1 [BALSALAZIDE],Not Active,Not Active
COc1cc(OC)c(C(=O)CCCN2CCCC2)c(OC)c1 [BUFLOMEDIL],Not Active,Not Active
Cn1c(=O)c2c(ncn2C)n(C)c1=O [CAFFEINE],Not Active,Not Active
ClC(Cl)(Cl)Cl [CARBON TETRACHLORIDE],Not Active,Not Active
CNC1=Nc2ccc(Cl)cc2C(c2ccccc2)=[N+]([O-])C1 [CHLORDIAZEPOXIDE],Not Active,Not Active
